Holding throughout (format): cell-based
Data set [1] relates to MCF7 cells. The data set is described as follows: Real time RT-PCR of miRNAs in hormone-treated MCF7 cells. As to conditions: MCF7, estradiol and ICI. How it is done:
Hormone Treatments. MCF7 cells were grown in phenol red-free media containing charcoal stripped serum for 24 hours prior to hormone treatments. The cells were treated with ethanol, 10 nM estradiol or a combination of 10 nM estradiol and 1 mM ICI 182,780 (ICI, Tocris Bioscience) for 6 h, 24 h or 48 h, as indicated, before harvesting RNA using Trizol (Invitrogen) as per the manufacturer's instructions.
Real Time RT-PCR. Poly A tailing and reverse transcription was performed using the NCode miRNA qRT-PCR kit (Invitrogen) as per manufacturer's instructions. SYBR green real time RT-PCR was performed using the Universal Forward Primer (Invitrogen) and miRNA specific primers. The specific primers used were: miR-193b 5′-[…]-3′ (SEQ ID NO: 10); miR-19b 5′-[…]-3′ (SEQ ID NO: 11); miR-20a 5′-[…]-3′ (SEQ ID NO: 12); miR-106a 5′-[…]-3′ (SEQ ID NO: 13); and miR-92b* 5′-[…]-3′ (SEQ ID NO: 14). Reported values are the means and standard errors of 3 biological replicates.
For miR-22, miR-221 and miR-7, taqman real time PCR was performed. Prior to generating cDNA, mRNA was treated with DNase1 (Invitrogen) for 15 min at room temperature. RNA was reverse transcribed into cDNA in a reaction containing reaction buffer, 10 mM DTT, 1 mM dNTPs, RNAse inhibitor (Promega), random hexamers (250 ng) and 200 U of MMUV-RT (ABI). The reaction proceeded at 25° C. for 10 min, then at 37° C. for 1 h. For normalization, real time RT-PCR was performed on the cDNA using ribosomal RNA primers and probe (ABI). TaqMan mRNA Reverse Transcription kit was used to generate cDNA for real time RT-PCR reaction in conjunction with a miR-22, miR-221 or miR-7 specific primers and probe (ABI). Reported values are the means and standard errors of three biological replicates.
The relative mRNA or miRNA levels were calculated using the comparative Ct method (ΔΔCt). Briefly, the Ct (cycle threshold) values for the rRNA were subtracted from Ct values of the target gene to achieve the ΔCt value. The 2^−ΔCt was calculated for each sample and then each of the values was then divided by a control sample to achieve the relative miRNA levels (ΔΔCt).
For orientation: Real-time PCR tracks product formation cycle by cycle.

For data set [2], the system named is ESR1 3′UTR. The data set is described as follows: Luciferase reporter assay, ESR1 3′UTR region ESR1-1, in MCF7 cells. The note with it: ESR1-1 reporter, 50 nM each mimic, versus scrambled negative control. The text has this:
Luciferase Assays. A 360 bp fragment of the 3′ untranslated region of ESR1 containing the putative binding sites for miR-203, miR-221 and miR-22 was amplified by PCR from HeLa genomic DNA (NEB) using the following primers: ESR1-1 F 5′-[…]-3′ (SEQ ID NO: 6) and ESR1-1 R 5′-[…]-3′ (SEQ ID NO: 7). A 680 bp fragment containing the putative binding sites for miR-130/301, miR-148/152, miR-19 and miR-26 was amplified using the following primers: ESR1-2 F 5′-[…]-3′ (SEQ ID NO: 8) and ESR1-2 R 5′-[…]-3′ (SEQ ID NO: 9). MCF7 cells (20,000 cells/well) in a 96-well plate were transfected with the 100 nM of the negative control, 50 nM each of the miR-22, miR-221 or both as described above. After 24 h, the firefly reporter plasmid (0.196 μg) and a renilla luciferase normalization plasmid (0.004 μg/pRL-SV40, Promega) were transfected in using Lipofectamine 2000. Cells were collected 48 hours later for assay using the Dual Luciferase Reporter assay system (Promega).
(Reporter assays use an easily measured gene product as a stand-in for the process of interest.)

Data set [3] concerns BT549 (triple negative) cells. Briefly: Apoptosis (PARP cleavage immunoblot) in triple-negative (BT549) cells. As to conditions: TN cells (BT549), 50 nM mimic, 72 h. The procedure: (§1) Transfections. BT549 or MDA-MB-231 cells were plated one day prior to transfection. Lipofectamine 2000 (Invitrogen) was incubated with the miRNA mimics for miR-22, miR-221, miR-193b or miR-7 (Ambion) or scrambled negative control (Ambion) at a concentration of 50 nM incubated in serum free media for 20 minutes prior to addition to the cells. Cells were incubated with the transfection mix at 37° C. for 4 h before replacement of FBS to 5%. Protein was harvested 72 h post-transfection using RIPA lysis buffer (1% NP40, 0.5% NaDeoxycholate, 0.1% SDS, 50 mM Tris, 150 mM NaCl, 5 mM EDTA) containing protease inhibitors.
(§2) Immunoblotting. Cell lysates (50 μg) in SDS sample buffer were denatured and separated on 8% SDS PAGE gels and transferred to PVDF membranes. The membranes were blocked in 5% milk in TBS-T, and then probed overnight at 4° C. […] After incubation with appropriate HRP-conjugated secondary antibody, results were detected using Western Lightning Chemiluminescence Reagent Plus (Perkin Elmer).

For data set [4], the system named is MCF10A (normal immortalized) cells. The data set is described as follows: Apoptosis in MCF10A cells after miR-193b transfection.
Data set [5] has as its system FASN. Briefly: Immunoblot of FASN in triple-negative (BT549) cells after miR-193b mimic transfection. The note with it: TN cells (BT549), 50 nM mimic, 72 h. The procedure:
as §1, §2
A general note: Immunoblotting shows a protein as a band on a membrane.

Turning to `C[C@]12CC[C@@H]3c4ccc(O)cc4C[C@@H](CCCCCCCCC[S+]([O-])CCCC(F)(F)C(F)(F)F)[C@H]3[C@@H]1CC[C@@H]2O` (stereo partly drawn) [ICI, ICI 182,780], the “estradiol effect on miR-92b*” value in data set [1] (24 h) was “reversed”. In addition, in data set [1] (48 h), the “estradiol effect on miR-19b” value is “abrogated”, the “estradiol effect on miR-20a” value is “abrogated” and the “estradiol effect on miR-106a” value is given as “abrogated”.

Consider “miR-221 mimic: miRNA mimic for miR-221 (Ambion); hsa-miR-221 sequence agcuacauugucugcuggguuuc (AGCUACAUUGUCUGCUGGGUUUC; chemistry not given here)”, for which, in data set [2], the “decrease in luciferase activity” value was determined as 13.7%.

As for “miR-193b mimic: miRNA mimic for miR-193b (Ambion); miR-193b is SEQ ID NO:1 aacuggcccucaaagucccgcu (AACUGGCCCUCAAAGUCCCGCU; mimic duplex, complementary strand not listed, further chemistry not given here)”, in data set [3], the PARP cleavage result was “complete PARP cleavage” and the “apoptosis, as seen by the appearance of cleaved PARP” value was “increase in apoptosis”. In addition, the apoptosis entry in data set [4] was “no apoptosis”. Moreover, the FASN protein entry in data set [5] is “almost complete repression”.
